In patent publication US20140106387A1, “METHOD FOR CONTROLLING NAD(P)/NAD(P)H RATIO BY OXIDOREDUCTASE” (MD BIOALPHA CO., LTD., priority 2006, published 2014):

Key:
[1] = tested on: NQO1; assay: NAD(P)H recycling assay (decrease of NAD(P)H by NQO1-activating candidate compounds); type: biochemical
Method: (10) NAD(P)H Recycling Assay
An NADH recycling assay was carried out using the above-extracted S9 supernatant or human recombinant NQO1 (hrNQO1). 20 μg of the S9 supernatant or 0.5 unit of hrNQO1 in conjunction with 200 μM NAD(P)H were added to a 25 mM Tris/HCl (pH 7.4) solution containing 0.2 mg/mL bovine serum albumin. The enzymatic reaction was initiated with addition of a […] compound and absorbance changes were monitored and recorded at 340 nm for 10 min.
(§1) For a variety of NQO1-activating candidate compounds as listed in Table 1 below, a decrease of NAD(P)H was measured based on the aforesaid experimental method (disclosed in Section 10 hereinbefore: NADH recycling assay). In addition, according to the experimental method given in Example 23, the body weight of ob/ob mice after four weeks was measured.
(§2) In this connection, the decreasing degree of NAD(P)H was expressed as a relative amount of NAD(P)H measured upon administration of the NQO1-activating candidate compound, by taking the amount of NAD(P)H in the absence of the NQO1 activator NAD(P)H to be 100. In addition, the degree of the body weight loss was expressed as a percentage of the body weight of ob/ob mice with administration of the NQO1-activating candidate compound, relative to the body weight of ob/ob mice without administration of the NQO1-activating candidate compound (control) after four weeks.

[2] = body weight and dietary intake of leptin receptor-deficient (ob/ob) mice; type: in vivo, mouse
Method: All experimental animal procedures were performed according to a guideline of Institutional Animal Care and Use Committee, Chungnam National University School of Medicine. OLETF rats were purchased from Otsuka Research Institute. Male ob/ob and C57BL/6 mice were purchased from Jackson Laboratory. Animals were housed in a breeding room maintained at a constant temperature of […] and a 12 h/12 h light/dark (L/D) cycle. 4-week-old C57BL/6 male mice were fed ad libitum high fat diet (HFD, 24% (w/w) and 45% calories as fat, Research Diets Inc., New Brunswick, N.J. 08901, US) for 7 weeks. Mouse groups were divided into an untreated group, a vehicle-treated group (calcium silicate), a pair-fed group and a candidate compound-treated group (calcium silicate-coated […] nanoparticles). Body weight and dietary intake of animals were daily measured. Upon completion of experiments, some mice of each group were anesthetized and received MRI examinations. The remaining mice of the groups were anatomized and tissue weight thereof was measured. Epidydimal fat, liver, soleus muscle and extensor digitorum longus (EDL) were prepared, and immunohistochemical, oil-red 0 and pH-sensitive ATPase staining were performed for analysis.
FIGS. 46 and 47 show changes in dietary intake/body weight and changes in body weight for 56 days, according to daily administration of pyrano-1,2-naphthoquinone into leptin receptor-deficient (ob/ob) mice at a dose of 200 mg/kg via an oral route.
This Example was intended to examine effects of varying in vivo NAD(P)^+/NAD(P)H ratio by arbitrary external supply of NAD(P)^+, a method capable of elevating the NAD(P)^+/NAD(P)H ratio in vivo. 100 mg/kg of NAD^+ was administered daily to leptin receptor-deficient (ob/ob) mice via an intraperitoneal (i.p.) route. A control mice group was given i.p. administration of physiological saline at the same dose. Changes in dietary intake/body weight (A) and changes in body weight (B) were measured for 30 days.
200 mg/kg of DMF was daily administered to leptin receptor-deficient (ob/ob) mice via an oral route. A control group received daily i.p. administration of physiological saline at the same dose. Changes in body weight (A) and changes in dietary intake (B) were measured for 30 days. It was confirmed that dietary intake of the treatment group was regulated to a 60 to 70% level of the control group.
as §1, §2

[3] = glucose tolerance and insulin sensitivity in OLETF rats; type: in vivo, rat; details: Days 3 and 21 after treatment
Method: Glucose tolerance test (GTT) was carried out for 12 h-fasted mice by a known method. As described above, 12 h-fasted mice received an insulin stimulation test
FIG. 45 is a graph showing glucose tolerance and insulin sensitivity measured in vehicle-treated ° LEIF rats and βL-treated OLETF rats. Glucose and insulin were i.p. and i.v. injected, respectively, and the blood glucose level was measured.

[4] = tested on: MN9D cells; assay: intracellular ATP concentration in dopaminergic neuronal cells; type: cell-based; details: 5 μM
Method: Dopaminergic (MN9D) and non-dopaminergic (MN9X) neuronal cells were treated with 5 μM pyran-1,2-naphthoquinone and the ATP concentration was periodically measured.

[5] = tested on: cardiomyocytes; assay: mitochondrial membrane potential (TMRE fluorescence) in cardiomyocytes; type: cell-based
Method: For determination of the inner mitochondrial membrane potential (ΔΨm), 20 nM of TMRE (tetramethylrhodamine ethyl ester) as a fluorescent indicator was continuously applied to be loaded on cells. In order to monitor mitochondrial Ca^2+, cells on glass coverslips were loaded with 10 μM Rhod-2 AM via cold loading/warm incubation. In order to monitor cytosolic Ca^2+, cells were co-loaded with 10 μM Fluo-4 AM at 37′C for 30 min. The cells were washed twice with a KB solution, and mounted in a perfusion chamber. Fluorescent imaging was taken using a confocal laser scanning microscope (LSM-510 META, Carl Zeiss) at a magnification of ×200 and ×400, in conjunction with appropriate laser lines and a filter set. Image analysis was carried out using LSM-510 META software (Zeiss). Images for TMRE (red fluorescence), Rhod-2 (red fluorescence) and Fluo-4 (green fluorescence) were obtained using an inverted Zeiss 510META laser-scanning confocal microscope equipped with ×63 numerical aperture, 1.4 oil-immersion planapochromat lens. Green fluorescence and red fluorescence were illuminated with light of 488 nm and 543 nm. Incident light was passed through a 545 nm dichroic mirror and observed via a 500 to 530 nm band-pass (green) filter and a 560 nm long-pass (red) barrier filter.
However, such effects were not observed in HEK293 cells. […]

CC1(C)CCC2=C(O1)c1ccccc1C(=O)C2=O [βL, 2,2-Dimethyl-3,4-dihydro-2H-benzo[h]chromene-5,6-dione]
Residual amount of NAD(P)H(%) ([1]; relative amount of NAD(P)H, amount in the absence of the NQO1 activator taken to be 100): 61.27 ± 1.09% | decrease of NAD(P)H and consequent body weight reduction ([1]; summary of Table 1 in words): significant decrease of NAD(P)H | body weight ([2]; 200 mg/kg daily oral, 56 days): effectively decreases body weight | dietary intake level recovered, relative to control group ([2]; 200 mg/kg daily oral, after around 10 days): 70% | dietary intake/body weight ([2]; 200 mg/kg daily oral, at around 10 days): notably decreased | Weight reduction In ob/ob mice (4 wk) ([2]; after four weeks, relative to ob/ob mice without administration (control), method of Example 23): −16.8 ± 2.9% | glucose tolerance and insulin sensitivity [3]: improvements in glucose tolerance and insulin sensitivity | intracellular ATP concentration [4]: decreased | decrease of TMRE fluorescence [5]: about 20%
